Experimental data: patent US20250000908A1, “METHODS FOR PREPARING AND ADMINISTERING CRYOPRESERVED PLATELETS AND PLATELET DERIVATIVES LOADED WITH ANTI-CANCER DRUGS” (Cellphire, Inc., priority 2023, published 2025)

Assays:
platelets = test: effect of antiplatelet compounds on DOX-induced platelet aggregation; type: cell-based; conditions: reagent at recommended concentration
HepG2 cells = test: receptor mediated binding between CPP or FPH and HepG2 cells with inhibitors / blocking mabs; type: cell-based, human; conditions: inhibitor / blocking mab tested, Table 7
Description: Receptor mediated binding between CPP or FPH with HepG2 cells was investigated by inhibiting either a platelet receptor or a HepG2 receptor. Pooled apheresis platelets were incubated with 50 μM CFDA-Se for 60 minutes at room temperature then acidified to pH of 6.6-6.8 with citric acid. CPP and FPH were then created as disclosed in Example 1 but without doxorubicin. Untreated HepG2 cells served as negative control groups. HepG2 cells were seeded at a density of 10^5 cells in a 12-well plate (NuncTM Cell-Culture Treated Multidishes, catalog no: 150628) After incubation for 24 hours, the original medium was […] hours with fresh 0.5% FBS DMEM (ATCC-formulated Eagle's Minimum Essential Medium, catalog No. 30-2003). To determine the effect of platelet receptor inhibition on the binding between CPP/FPH and HepG2 cells first both CPP and FPH were incubated with tirofiban to block the GpIIb/IIIa receptor. Then the HepG2 cells were supplemented with tirofiban treated CPP, tirofiban treated FPH, untreated CPP, or untreated FPH at an equivalent platelet count of 0.3×10^6 platelets/μl. The cells were then washed with cold PBS three times, harvested by a scraper, and then suspended in PBS. The fluorescence intensity was determined by flow cytometry with the FITC channel. Approximately 10,0000 events for each sample was measured to assess the surface binding between the HepG2 cells and tirofiban treated CPP or FPH. To determine the effect of HepG2 receptor inhibition on the binding between CPP/FPH and HepG2 cells, first HepG2 cells were treated with either anti-podoplanin blocking monoclonal antibody or phagocytosis (wortmannin) inhibitor for 30 minutes. Then the HepG2 cells were incubated with either CPP or FPH. The HepG2 cells were washed with cold PBS three times, harvested by a scraper, and then suspended in PBS. The fluorescence intensity was determined by flow cytometry with the FITC channel. Approximately 10,0000 events for each sample was measured to assess the surface binding between the HepG2 cells CPP or FPH. […]

GPIIb/IIIa = GPIIb/IIIa (Homo sapiens, UniProt P05106+P08514); conditions: printed as recommended concentration; source PMID: 9700979; cited from earlier work
Sequence of GPIIb/IIIa (P08514 32-887 limits assumed): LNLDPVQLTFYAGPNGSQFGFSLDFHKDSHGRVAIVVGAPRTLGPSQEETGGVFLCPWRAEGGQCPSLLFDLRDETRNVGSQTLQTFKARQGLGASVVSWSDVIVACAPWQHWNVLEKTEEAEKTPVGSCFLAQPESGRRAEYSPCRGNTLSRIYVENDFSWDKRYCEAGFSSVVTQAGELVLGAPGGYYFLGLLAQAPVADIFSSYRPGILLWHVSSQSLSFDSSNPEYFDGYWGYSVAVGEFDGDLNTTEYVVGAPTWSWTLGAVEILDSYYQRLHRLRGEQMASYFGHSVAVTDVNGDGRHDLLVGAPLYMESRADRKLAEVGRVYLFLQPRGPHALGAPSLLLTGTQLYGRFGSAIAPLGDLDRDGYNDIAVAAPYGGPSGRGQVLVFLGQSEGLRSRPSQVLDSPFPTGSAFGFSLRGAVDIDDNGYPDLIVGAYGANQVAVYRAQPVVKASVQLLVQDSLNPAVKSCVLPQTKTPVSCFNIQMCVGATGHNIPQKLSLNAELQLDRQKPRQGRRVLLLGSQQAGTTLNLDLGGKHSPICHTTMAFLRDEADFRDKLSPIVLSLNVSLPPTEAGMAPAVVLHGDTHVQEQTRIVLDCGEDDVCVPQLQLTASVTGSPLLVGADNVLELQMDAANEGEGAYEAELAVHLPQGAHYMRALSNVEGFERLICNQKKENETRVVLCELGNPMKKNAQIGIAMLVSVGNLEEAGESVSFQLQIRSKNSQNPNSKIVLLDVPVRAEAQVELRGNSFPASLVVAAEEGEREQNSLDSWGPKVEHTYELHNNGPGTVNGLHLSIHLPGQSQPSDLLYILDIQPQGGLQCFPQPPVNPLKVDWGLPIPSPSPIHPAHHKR
Sequence of GPIIb/IIIa (P08514 891-1039 partner limits assumed): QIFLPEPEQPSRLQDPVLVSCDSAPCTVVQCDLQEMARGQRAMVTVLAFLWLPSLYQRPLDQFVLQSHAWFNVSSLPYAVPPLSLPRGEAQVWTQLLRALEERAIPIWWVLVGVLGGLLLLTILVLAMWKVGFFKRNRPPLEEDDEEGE
Sequence of GPIIb/IIIa (P05106 27-788): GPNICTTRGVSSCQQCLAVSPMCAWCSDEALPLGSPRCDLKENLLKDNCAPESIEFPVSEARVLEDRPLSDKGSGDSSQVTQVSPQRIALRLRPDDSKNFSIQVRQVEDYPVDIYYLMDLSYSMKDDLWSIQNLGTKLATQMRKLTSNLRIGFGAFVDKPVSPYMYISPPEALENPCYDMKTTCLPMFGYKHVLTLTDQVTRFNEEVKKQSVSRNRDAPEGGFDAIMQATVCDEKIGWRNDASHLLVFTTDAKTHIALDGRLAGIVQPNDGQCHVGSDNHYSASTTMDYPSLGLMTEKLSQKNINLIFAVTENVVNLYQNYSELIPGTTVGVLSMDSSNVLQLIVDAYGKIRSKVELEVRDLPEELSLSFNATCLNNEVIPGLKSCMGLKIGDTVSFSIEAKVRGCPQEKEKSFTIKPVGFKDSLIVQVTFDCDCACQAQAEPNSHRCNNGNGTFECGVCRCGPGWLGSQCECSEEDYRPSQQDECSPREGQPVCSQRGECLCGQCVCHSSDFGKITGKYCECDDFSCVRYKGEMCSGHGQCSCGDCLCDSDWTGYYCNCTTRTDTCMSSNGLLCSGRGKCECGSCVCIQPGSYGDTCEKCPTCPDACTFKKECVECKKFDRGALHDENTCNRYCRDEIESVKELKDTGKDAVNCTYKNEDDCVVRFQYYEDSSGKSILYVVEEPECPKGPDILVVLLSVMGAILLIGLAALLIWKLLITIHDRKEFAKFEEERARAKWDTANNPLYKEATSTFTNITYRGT

| SMILES | Max Platelet Count (Normalized to Untreated) (platelets; 0.5 mg/mL DOX) [%] | Max Platelet Count (Normalized to Untreated) (platelets; 1 mg/mL DOX) [%] | further results |
| --- | --- | --- | --- |
| CCCCS(=O)(=O)N[C@@H](Cc1ccc(OCCCCC2CCNCC2)cc1)C(=O)O [Tirofiban] |  |  | Max Platelet Count (Normalized to Untreated) (platelets; 0.6 mM DOX): 73%; change of CPP/FPH binding to HepG2 cells in comparison to control (HepG2 cells): Significance |
| Cl.Cl.Cl.N=C(N)c1ccc(N2CCN(C3CCN(CC(=O)O)CC3)CC2)cc1 [GR144053] | 83 | 42 | IC50 (GPIIb/IIIa): 0.037 µM |
| CC(=O)N[C@@H](CS)C(=O)O [N-Acetylcysteine] |  |  | Max Platelet Count (Normalized to Untreated) (platelets; 0.6 mM DOX): 73% |
| O=c1c(-c2ccc(O)cc2)coc2cc(O)cc(O)c12 [Genistein] |  |  | change of CPP/FPH binding to HepG2 cells in comparison to control (HepG2 cells): No Significance |
| CSCCNc1nc(SCCC(F)(F)F)nc2c1ncn2[C@@H]1O[C@H](COP(=O)(O)OP(=O)(O)C(Cl)(Cl)P(=O)(O)O)[C@@H](O)[C@H]1O [Cangrelor] | 47 | 26 |  |
| Nc1c(S(=O)(=O)O)cc(Nc2ccc(Nc3ccccc3)c(S(=O)(=O)O)c2)c2c1C(=O)c1ccccc1C2=O [PSB 0739] | 26 | 18 |  |
| COC(=O)/C=C1/SC(=NC(=O)c2ccc(Cl)cc2Cl)N(c2ccc(Cl)cc2)C1=O [FR171113] | 51 | 16 |  |
| CC(=O)Oc1ccccc1C(=O)O [Aspirin (ASA), Aspirin] | 52 | 15 |  |
| CC1(C)CC(NC(=O)C[P+](c2ccccc2)(c2ccccc2)c2ccccc2)CC(C)(C)N1[O] [MitoTEMPO] |  |  | Max Platelet Count (Normalized to Untreated) (platelets; 1.2 mM DOX): 37% |
| CN(C)CCCN1c2ccccc2Sc2ccc(Cl)cc21 [Chlorpromazine] |  |  | change of CPP/FPH binding to HepG2 cells in comparison to control (HepG2 cells): No Significance |
| CSc1nc(N)c2ncn([C@@H]3O[C@H](COP(=O)(O)OP(=O)(O)O)[C@@H](O)[C@H]3O)c2n1 [MeSADP] | 33 | 10 |  |
